Assay results as given in patent US20230242616A1, “CHEMOKINE-SELECTIVE CXCR4 ECTODOMAIN-DERIVED (POLY)PEPTIDE” (Ludwig-Maximilians-Universität München, priority 2020, published 2023).
Several values for one entry are separate records, joined by “and”; a condition that tells them apart may be missing. Equal values may be shown once.

Legend:
[1] = system: primary mouse spleen B lymphocytes; test: Transwell chemotaxis of B cells elicited by MIF; assay type: cell-based; conditions: 16 nM MIF
Procedure: Chemotaxis analysis of murine B cells. A Transwell-based assay was used as described previously^34. Briefly, splenic B cells were isolated by negative depletion using a Pan B Cell Isolation Kit (Miltenyi Biotec. Bergisch Gladbach, Germany). Purity of the cells was between 95 and 99%. […] Chemotaxis was followed for 4 h at 37° C. in a humidified atmosphere of 5% CO2. Migrated cells were counted by flow cytometry using CountBright™ Absolute Counting Beads (Molecular Probes-Invitrogen).

[2] = system: MonoMac-6 monocytes on human aortic endothelial cells (HAoECs); test: Static monocyte adhesion, MIF-induced; assay type: cell-based; conditions: 16 nM MIF, 320 nM peptide
Procedure: Static monocyte adhesion. HAoECs were seeded at a density of 30.000 cells/well in 6 well μ-Ibidi Perfusion slides VI 0.4 (Ibidi GmbH). […] After perfusion of the chambers with fresh medium, MonoMac6 cells (1×10^6 cells/mL) in PromoCell medium were added for 30 min. Non-adhering cells were flushed away by gentle perfusion using a 30 mL syringe. To quantify adherent monocytes, 10 individual images from each treatment were acquired using a Leica DMi8 inverted microscope with a 10× objective and cells quantified using Image J.

Apoe−/− mice on HFD = test: In-vivo model of early atherosclerosis
Procedure: Seven-eight-week-old female Apoe^−/− mice were randomly divided into two groups of 11-12 mice each and both groups put on a Western-type HFD (0.2% cholesterol) for 4.5 weeks. Mice develop early-to-intermediate atherosclerotic lesions in this model^39. […] At the end of the experiment, mice were sacrificed, blood collected by cardiac puncture and saved for blood cell and lipid measurements and mice transcardially perfused with saline. Hearts, proximal aortas and carotid arteries were prepared and fixed for plaque morphometry and lesion analysis.
Quantification of plaques and vessel morphometry (oil red O and H&E staining). Cut heart tissue containing aortic root were embedded in optimum cutting temperature (OCT) (Sakura Finetek, Osaka, Japan) and frozen at −80° C. Eight-μm sections were prepared for oil-red O (ORO) staining and plaque immune cell analysis. The accumulation of macrophages in aortic root lesions was determined by an anti-MAC-2 antibody followed by Cy5-conjugated secondary antibody. Nuclei were visualized with DAPI. The aortic arch was cut, fixed in 4% paraformaldehyde (PFA) and embedded in paraffin. Ten-μm sections containing the three branches (brachiocephalic, left common carotid, and left subclavian artery) were prepared and stained with hematoxylin/eosin (HE) for vessel morphometry. Images were captured with a Leica DMi8 microscope and quantified using Image J.

[3] = system: Apoe−/− mice with established plaques; test: Regression model of atherosclerosis; assay type: in vivo, mouse
Excerpt: Control mice received saline. Mice were sacrificed after 9 weeks and vessel tissues prepared for plaque, cell, and macrophage staining. A. C, E, staining of aortic root sections with oil red O (ORO), hematoxylin eosin (HE), and anti-CD68, respectively. G, staining of aortic arch with HE. B, D, F, H, respective quantifications from 14 mice per group. Statistics: two-tailed, unpaired Mann-Whitney test; *, P<0.05; **, P<0.01.
To further test the therapeutic applicability of msR4M-L1, an in vivo test in a “regression setting” was applied to mimic the patient situation, who is typically seen by a physician only when symptoms occur. The real-life situation is thus one in which preformed plaques already exist, when a patient starts treatment. A regression model therefore better mimics the situation in patient with pre-existing atherosclerotic disease.
In a pilot study, atherogenic ApoE−/− mice were put on Western diet for 4.5 wks.

[4] = system: human cardiomyocytes (HCM), pAMPK; test: MIF-triggered AMPK signaling in cardiomyocytes (MIF/CD74); assay type: cell-based; conditions: 16 nM MIF; 1- and 5-fold excess
Procedure: CD74 signaling in human cardiomyocytes. Before stimulation, medium was replaced by fresh myocyte basal medium containing 0.05% FCS and HCMs rested for 16 h. Surface CD74 expression on HCMs was verified by flow cytometry (FITC-conjugated anti-human CD74, FITC-IgG2 (isotype control) (BD Pharmingen), 1 h/4° C. in the dark, BD FACSVerse™ flow cytometer, FlowJo software). […] After treatment, cells were lysed and subjected to SDS-PAGE/Western blotting. […] Anti-rabbit horseradish peroxidase (HRP)-conjugated antibody (1:10000, GE Healthcare, Freiburg, Germany) was used for development and signals quantitated by chemiluminescence using an Odyssey® Fc imager.

[5] = Blood cell counts, lipid levels and body weight of treated mice; assay type: in vivo, mouse
Excerpt: Blood cell counts, triglycerides and cholesterol levels. […] APC-conjugated anti-CD19, FITC-conjugated anti-CD3.

[6] = system: human monocyte-derived macrophages; conditions: read-out: IC50 of MIF-triggered Dil-oxLDL uptake; lower threshold of effect size roughly 50%
human monocytes = test: 3D migration of monocytes elicited by MIF (time-lapse microscopy); assay type: cell-based
Excerpt: Isolation of human peripheral blood-derived monocytes. Human peripheral blood-derived monocytes were isolated as described^14. Briefly, blood was collected from healthy donors or buffy coat obtained from the blood bank of Munich University Hospital, mixed 1:1 with PBS, and PBMCs isolated by Ficoll-Paque Plus gradient (GE Healthcare). Monocytes were purified by negative depletion using the Monocyte Isolation Kit II (Miltenyi). Monocyte purity was verified by flow cytometry using an anti-CD14 antibody (Miltenyl) and was 95-98%. […] The isolation of PBMCs from donor blood was approved by the local ethics committee of LMU Munich. 3D migration of human peripheral blood-derived monocytes by time-lapse microscopy. The 3D-migration behavior of human monocytes was assessed by time-lapse microscopy and individual cell tracking using the 3D chemotaxis μ-Slide system from Ibidi GmbH (Munich, Germany), adapting the established Ibidi dendritic cell protocol for human monocytes. […] Cell motility was monitored performing time-lapse imaging every 1 min at 37° C. for 2 h using a Leica inverted DMi8-Life Cell Imaging System equipped with a DMC2900 Digital Microscope Camera with CMOS sensor and live cell-imaging software (Leica Microsystems, Wetzlar, Germany). Images were imported as stacks to ImageJ software and analyzed with the manual tracking and chemotaxis/migration tools (Ibidi GmbH).

[7] = biological target: T1, human CXCR4 (CXCL12/CXCR4) (Homo sapiens, UniProt P48061); test: CXCR4-specific signaling in yeast (lacZ reporter), CXCL12-triggered; assay type: cell-based; conditions: 2 μM CXCL12
T1 construct: expressed in transfected cells; host or cells: S. cerevisiae strain CY12946
T1 sequence (P48061 22-89 limits assumed): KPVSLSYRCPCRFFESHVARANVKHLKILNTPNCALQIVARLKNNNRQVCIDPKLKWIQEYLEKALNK
Procedure: CXCR4-specific signaling in a yeast-based cell system. […] Briefly, yeast transformants stably expressing human CXCR4 were grown overnight at 30° C. in yeast nitrogen base selective medium (Formedium, UK). Cells were diluted to an OD600 of 0.2 and grown to an OD600 of 0.3-0.6. […] OD600 was measured and activation of CXCR4 signaling quantified by β-galactosidase activity using a commercial BetaGlo Kit (Promega, Mannheim, Germany).

With `CC[C@H](C)[C@H](NC(=O)[C@H](Cc1ccc(O)cc1)NC(=O)[C@H](CCCNC(=N)N)NC(=O)[C@H](CC(=O)O)NC(=O)CCCCCCCCCCCNC(=O)CCCCCNC(=O)[C@H](CCCCN)NC(=O)[C@H](CS)NC(=O)[C@H](CC(C)C)NC(=O)[C@H](Cc1ccccc1)NC(=O)[C@H](CC(N)=O)NC(=O)CNC(=O)[C@H](Cc1ccccc1)NC(=O)[C@H](Cc1ccc(O)cc1)NC(=O)[C@H](Cc1c[nH]c2ccccc12)NC(=O)[C@H](CC(N)=O)NC(=O)[C@H](C)NC(=O)[C@@H](NC(=O)[C@H](C)NC(=O)[C@@H](N)CC(=O)O)C(C)C)C(=O)N[C@@H](CS)C(=O)N[C@@H](CC(=O)O)C(=O)N[C@@H](CCCNC(=N)N)C(=O)N[C@@H](Cc1ccccc1)C(=O)N[C@@H](Cc1ccc(O)cc1)C(=O)N1CCC[C@H]1C(=O)N[C@@H](CC(N)=O)C(=O)N[C@@H](CC(=O)O)C(=O)N[C@@H](CC(C)C)C(=O)N[C@@H](Cc1c[nH]c2ccccc12)C(=O)N[C@H](C(N)=O)C(C)C` [msR4M-L1] the “inhibition of MIF-mediated B-cell chemotaxis” value [1] was “fully blocked”, the “molar excess over MIF at maximal inhibition” value [1] was 5 -fold molar excess and the IC50 ([1]; read-out: IC50 of MIF-mediated B-lymphocyte chemotaxis) was 0.01 µM and 0.01 to 0.015 µM. For the same compound, the “effect on MIF-induced static monocyte adhesion” value [2] was “ablated the pro-adhesion effect of MIF”, the “toxicity or side effects” value (Apoe−/− mice on HFD; 50 μg i.p. for 4.5 weeks) was “No toxicity or side effects were noted” and the “number of lesional macrophages (MAC-2 staining)” value (Apoe−/− mice on HFD; 50 μg per mouse i.p., HFD 4.5 weeks) was “significantly decreased number of lesional macrophages”. For the same compound, the “atherosclerotic lesion size in aortic arch and root” value (Apoe−/− mice on HFD; 50 μg per mouse i.p., HFD 4.5 weeks, versus vehicle) was “significantly decreased”, the “plaque load, pilot regression study” value ([3]; 4-5 mice per group, 50 μg/mouse, 3× per week) was “decreased plaque load (trend)” and the “atherosclerotic plaques (ORO and HE aortic root, HE aortic arch), regression study” value ([3]; 14 mice per group) was “leads to a regression of atherosclerotic plaques”. The “intralesional inflammation, CD68+ macrophage area” value ([3]; 14 mice per group) was “reduced”, the “effect on MIF-upregulated pAMPK levels” value [4] was “not attenuated” and the Leukocytes ([5]; Apoe−/− mice, HFD 4.5 weeks) was 4632 ± 286 per μL. For the same compound, the Lymphocytes ([5]; Apoe−/− mice, HFD 4.5 weeks) was 2347 ± 50 per μL, the Monocytes ([5]; Apoe−/− mice, HFD 4.5 weeks) was 552 ± 51 per μL and the Neutrophils ([5]; Apoe−/− mice, HFD 4.5 weeks) was 1897 ± 46 per μL. For the same compound, the Triglycerides ([5]; Apoe−/− mice, HFD 4.5 weeks) was 156.7 ± 3.8 mg/dL, the Weight ([5]; Apoe−/− mice, HFD 4.5 weeks) was 22.3 ± 0.2 g and the Cholesterol ([5]; Apoe−/− mice, HFD 4.5 weeks, means ± SD) was 647.4 ± 19.2 mg/dL. For the same compound, the “effect on body weight, plasma total cholesterol, triglyceride levels, blood leukocyte counts” value ([5]; mouse, in vivo) was “did not observe any effect”, the IC50 [6] was about 0.1 µM and the “effect on MIF-triggered 3D monocyte migration” value (human monocytes) was “dose-dependently attenuated”. For the same compound, the “molar excess that ablates the pro-migratory effect of MIF” value (human monocytes) was 2 -fold molar excess and the “effect on CXCL12/CXCR4-elicited signaling” value [7] was “remained unaffected”.
